Data on 23 molecules can be found in PubChem BioAssay AID248 (DTP/NCI, 2004).

The experiment relates to L1210 leukemia ip in BDF1 mice, survival T/C. Briefly: NCI In Vivo Anticancer Drug Screen. Data for tumor model L1210 Leukemia (intraperitoneal) in B6D2F1 (BDF1) mice. The conditions noted are these: endpoint: mean survival time, higher = longer survival. The gist of the method:
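Transplantable tumor model; survival measured in treated vs vehicle control mice. Value = treated/control.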

The mark [1] stands for this setting: dose: 100.0 mg/kg/injection, schedule: Q01DX001 (ip), vehicle: saline.
[2] abbreviates: dose: 200.0 mg/kg/injection, schedule: Q01DX001 (ip), vehicle: saline.
Setting [3] is: dose: 400.0 mg/kg/injection, schedule: Q01DX001 (ip), vehicle: saline.
Setting [4] is: dose: 100.0 mg/kg/injection, schedule: Q01DX009 (ip), vehicle: saline with Tween-80.
Setting [5] is: dose: 200.0 mg/kg/injection, schedule: Q01DX009 (ip), vehicle: saline with Tween-80.
Setting [6] is: dose: 400.0 mg/kg/injection, schedule: Q01DX009 (ip), vehicle: saline with Tween-80.
Setting [7] is: dose: 100.0 mg/kg/injection, schedule: Q04DX003 (ip), vehicle: saline.
Setting [8] is: dose: 200.0 mg/kg/injection, schedule: Q04DX003 (ip), vehicle: saline.
[9] abbreviates: dose: 100.0 mg/kg/injection, schedule: Q04DX003 (ip), vehicle: saline with Tween-80.
The mark [10] stands for this setting: dose: 200.0 mg/kg/injection, schedule: Q04DX003 (ip), vehicle: saline with Tween-80.
[11] abbreviates: dose: 400.0 mg/kg/injection, schedule: Q04DX003 (ip), vehicle: saline with Tween-80.
Setting [12] is: dose: 100.0 mg/kg/injection, schedule: Q01DX009 (ip), vehicle: Klucel (hydroxypropylcellulose) (HPC).
[13] abbreviates: dose: 200.0 mg/kg/injection, schedule: Q01DX009 (ip), vehicle: Klucel (hydroxypropylcellulose) (HPC).
[14] abbreviates: dose: 400.0 mg/kg/injection, schedule: Q01DX009 (ip), vehicle: Klucel (hydroxypropylcellulose) (HPC).
[15] abbreviates: dose: 100.0 mg/kg/injection, schedule: Q04DX003 (ip), vehicle: Klucel (hydroxypropylcellulose) (HPC).
Setting [16] is: dose: 200.0 mg/kg/injection, schedule: Q04DX003 (ip), vehicle: Klucel (hydroxypropylcellulose) (HPC).
The mark [17] stands for this setting: dose: 400.0 mg/kg/injection, schedule: Q04DX003 (ip), vehicle: Klucel (hydroxypropylcellulose) (HPC).
Where [18] appears, read: dose: 50.0 mg/kg/injection, schedule: Q01DX009 (ip), vehicle: saline with Tween-80.

Where “and” joins values, the source holds several entries; their conditions need not be identical. Equal values may be shown once. Inconclusive results and toxic doses are left out.

For `CC(=O)Oc1ccc([N+](=O)[O-])cc1OC(C)=O`, the T/C by setting is: (dose: 75.0 mg/kg/injection, schedule: Q01DX001 (ip), vehicle: water) 92 % of control; (dose: 150.0 mg/kg/injection, schedule: Q01DX001 (ip), vehicle: water) 92 % of control; (dose: 300.0 mg/kg/injection, schedule: Q01DX001 (ip), vehicle: water) 95 % of control.
For the molecule `NC(=O)N(N)CCO`, the T/C runs as follows: under setting [1], 102 % of control; under setting [2], 91 % of control; under setting [3], 93 % of control.
For `S=C(c1ccccc1Cl)N1CCOCC1` the same measures were 104 % of control, 102 % of control and 98 % of control.
For `Nc1cccc2cc3ccccc3[n+]([O-])c12`, the T/C runs as follows: under setting [4], 103 % of control; under setting [5], 103 % of control; under setting [6], 93 % of control.
`O=C(O)CCCN1C/C(=C\c2ccc(Cl)cc2)C(=O)C1=O`: the T/C under setting [1] is 97 % of control; the T/C under setting [7] was 98 % of control; the T/C under setting [2] was 102 % of control; the T/C under setting [8] was 98 % of control; the T/C under setting [3] was 107 % of control; the T/C (dose: 400.0 mg/kg/injection, schedule: Q04DX003 (ip), vehicle: saline) was 96 % of control.
For the molecule `Clc1ccc(N=NNc2ccc(Cl)cc2)cc1`, the T/C runs as follows: under setting [4], 91 % of control; under setting [9], 96 % of control; under setting [5], 92 % of control; under setting [10], 105 % of control; under setting [6], 92 % of control; under setting [11], 92 % of control.
With `COC(/C=C\C(OC)OC)OC`, the T/C was 106 % of control (dose: 12.5 mg/kg/injection, schedule: Q04DX003 (ip), vehicle: saline); 101 % of control (dose: 25.0 mg/kg/injection, schedule: Q04DX003 (ip), vehicle: saline); 101 % of control (dose: 50.0 mg/kg/injection, schedule: Q04DX003 (ip), vehicle: saline); 98 % of control under setting [12]; 96 % of control under setting [13]; 96 % of control under setting [14].
Take `CCCCCCCCCCCCCCCCCCNC(=S)N(C)C`: the T/C runs as follows: under setting [15], 89 % of control; under setting [16], 86 % of control; under setting [17], 89 % of control.
Turning to `OC(Cc1cccc(=S)[nH]1)(c1ccccc1)c1ccccc1`, the T/C under setting [1] is 98 % of control, the T/C under setting [2] was 93 % of control and the T/C under setting [3] was 91 % of control.
Turning to `Clc1ccc(/C=N/c2ccccn2)cc1`, the T/C under setting [1] was 102 % of control, the T/C under setting [2] was 102 % of control and the T/C under setting [3] is 100 % of control.
Consider `CCC(C)Nc1ccc([N+](=O)[O-])cc1` (stereo unspecified), for which the T/C (dose: 75.0 mg/kg/injection, schedule: Q01DX009 (ip), vehicle: other) was 95 % of control; the T/C (dose: 150.0 mg/kg/injection, schedule: Q01DX009 (ip), vehicle: other) was 102 % of control; the T/C (dose: 300.0 mg/kg/injection, schedule: Q01DX009 (ip), vehicle: other) is 113 % of control.
Consider `CC1CCCCN1C(=O)Nc1cccc(F)c1` (stereo unspecified), for which the T/C was 104 % of control under setting [12], 102 % of control under setting [13] and 111 % of control under setting [14].
In the case of `COc1ccc(OC(=S)N(C)C)cc1`, the T/C is 94 % of control under setting [9], 88 % of control under setting [10] and 102 % of control under setting [11].
Regarding `O=C1OC(c2ccccc2)=C/C1=C/c1ccccc1O`, the T/C is 95 % of control under setting [18], 101 % of control under setting [4] and 96 % of control under setting [5].
For `CCN(C(=O)c1ccccc1C)C(c1ccccc1)P(=O)(c1ccccc1)c1ccccc1` (stereo unspecified), the T/C by setting is: (dose: 100.0 mg/kg/injection, schedule: Q01DX001 (ip), vehicle: saline with Tween-80) 118 % of control; (dose: 100.0 mg/kg/injection, schedule: Q04DX002 (ip), vehicle: saline with Tween-80) 98 % of control and 100 % of control; under setting [9], 109 % of control and 86 % of control; (dose: 200.0 mg/kg/injection, schedule: Q01DX001 (ip), vehicle: saline with Tween-80) 100 % of control; (dose: 200.0 mg/kg/injection, schedule: Q04DX002 (ip), vehicle: saline with Tween-80) 93 % of control and 102 % of control; under setting [10], 94 % of control and 96 % of control. Moreover, the T/C was 97 % of control (dose: 400.0 mg/kg/injection, schedule: Q01DX001 (ip), vehicle: saline with Tween-80); 93 % of control and 90 % of control (dose: 400.0 mg/kg/injection, schedule: Q04DX002 (ip), vehicle: saline with Tween-80); 93 % of control and 112 % of control under setting [11].
Turning to `CN(Cc1cnc2nc(N)nc(N)c2n1)c1c(F)cc(C(=O)NC(CCC(=O)O)C(=O)O)cc1F` (stereo unspecified), the T/C reads like this: (dose: 1.5 mg/kg/injection, schedule: Q01DX009 (ip), vehicle: sodium bicarbonate) 114 % of control; (dose: 12.0 mg/kg/injection, schedule: Q01DX009 (ip), vehicle: sodium bicarbonate) 154 % of control.
Regarding `C(OC[C@H]1CC[C@@H](COCC2CO2)O1)C1CO1` (stereo partly specified), the T/C is 112 % of control under setting [1]; 120 % of control (dose: 108.0 mg/kg/injection, schedule: Q01DX007 (ip), vehicle: saline); 106 % of control and 110 % of control (dose: 178.0 mg/kg/injection, schedule: Q01DX001 (ip), vehicle: saline); 109 % of control under setting [2]; 114 % of control and 115 % of control (dose: 267.0 mg/kg/injection, schedule: Q01DX001 (ip), vehicle: saline); 114 % of control under setting [3]. Besides, where the note is “dose: 600.0 mg/kg/injection, schedule: Q01DX001 (ip), vehicle: saline”, the T/C was 98 % of control.
With `Nc1ccn(CC(=O)c2ccco2)c(=O)n1`, the T/C reads like this: (dose: 50.0 mg/kg/injection, schedule: Q01DX009 (ip), vehicle: saline) 111 % of control; (dose: 100.0 mg/kg/injection, schedule: Q01DX009 (ip), vehicle: saline) 111 % of control and 90 % of control; under setting [7], 104 % of control; (dose: 200.0 mg/kg/injection, schedule: Q01DX009 (ip), vehicle: saline) 105 % of control; under setting [8], 97 % of control.
Take `Cc1ccc(SCC#CCOc2ccc(Cl)cc2)cc1`: the T/C is, setting by setting: (dose: 75.0 mg/kg/injection, schedule: Q01DX001 (ip), vehicle: saline) 93 % of control; (dose: 75.0 mg/kg/injection, schedule: Q01DX009 (ip), vehicle: saline) 99 % of control; (dose: 150.0 mg/kg/injection, schedule: Q01DX001 (ip), vehicle: saline) 95 % of control; (dose: 150.0 mg/kg/injection, schedule: Q01DX009 (ip), vehicle: saline) 99 % of control; (dose: 300.0 mg/kg/injection, schedule: Q01DX001 (ip), vehicle: saline) 93 % of control; (dose: 300.0 mg/kg/injection, schedule: Q01DX009 (ip), vehicle: saline) 96 % of control.
`Cc1cccc(NC(=O)c2ccc(Cl)c(Cl)c2)c1C`: the T/C reads like this: under setting [12], 94 % of control; under setting [15], 93 % of control; under setting [13], 88 % of control; under setting [16], 91 % of control; under setting [14], 88 % of control; under setting [17], 95 % of control.
With `COc1cc(C(=O)O)c(O)c(OC)c1OC`, the T/C under setting [12] is 96 % of control; the T/C under setting [15] was 98 % of control; the T/C under setting [13] was 106 % of control; the T/C under setting [16] was 101 % of control; the T/C under setting [14] was 101 % of control; the T/C under setting [17] is 104 % of control.
In the case of `O=C(Nc1ccccc1Cl)c1cccnc1`, the T/C by setting is: (dose: 100.0 mg/kg/injection, schedule: Q04DX003 (ip), vehicle: other) 96 % of control; (dose: 200.0 mg/kg/injection, schedule: Q04DX003 (ip), vehicle: other) 97 % of control; (dose: 400.0 mg/kg/injection, schedule: Q04DX003 (ip), vehicle: other) 94 % of control.
`N#CC(C#N)C(=O)c1ccccc1`: the T/C by setting is: (dose: 12.5 mg/kg/injection, schedule: Q01DX009 (ip), vehicle: saline with Tween-80) 100 % of control; (dose: 25.0 mg/kg/injection, schedule: Q01DX009 (ip), vehicle: saline with Tween-80) 100 % of control; under setting [18], 96 % of control; under setting [9], 95 % of control; under setting [10], 95 % of control; under setting [11], 89 % of control.
